“And” between values parts separate entries of the source, which are not always exact repeats. Equal values may be shown once.
Row | SMILES | melting point
1 | O=C(Cl)OCC1c2ccccc2-c2ccccc21 [9-fluorenylmethyl chloroformate] | 62 °C
2 | C#CCCCCCCCCC [1-undecyne] | -25 °C
3 | CCOCCO [2-Ethoxyethanol] | -90 °C
4 | FC(F)Cl [Chloro(difluoro)methane] | -146 °C
5 | CCCCCCCCCCCCO [Dodecan-1-ol] | 24 °C
6 | O=S1(=O)CCCO1 [1,2-Oxathiolane 2,2-dioxide] | 32 °C
7 | Cc1c[nH]c(=O)[nH]c1=O [thymine] | 317 °C
8 | CB(O)O [methylboronic acid] | 92 °C
9 | CC(C)(C)c1cc(C(=S)NC2CCCCC2)cc(C(C)(C)C)c1O [3,5-Di-tert-butyl-N-cyclohexyl-4-hydroxy-thiobenzamide] | 228 °C
10 | O=Cc1csnn1 [1,2,3-thiadiazole-4-carboxaldehyde] | 85 °C
11 | COc1cc(Cl)cc(B(O)O)c1 [3-chloro-5-methoxybenzeneboronic acid] | 187 °C
12 | COC(=O)CCC(C)C1CCC2C3C(OC(C)=O)CC4CC(=O)CCC4(C)C3CC(=O)C12C (stereo not given) [methyl 7-(acetyloxy)-3,12-dioxocholan-24-oate] | 166 °C
13 | CCC(=O)O [propanoic acid] | -20.7 °C
14 | COc1ccccc1N [o-anisidine] | 6 °C
15 | CCCN(CCC)C(=O)Cc1c(-c2ccc(Cl)cc2)nc2ccc(Cl)cn12 [alpidem] | 140 °C
16 | CC(C)(C)OO [tert-Butyl hydroperoxide] | -3 °C
17 | CCCCOC(=O)CCC [butyl butyrate] | -92 °C (3×) and -91.5 °C (2×)
18 | Nc1ncnc2c1ncn2[C@@H]1O[C@H](CO)[C@@H](O)[C@H]1O [Adenosine] | 236 °C
19 | C/C(=C/C(=O)NN)C(=O)NN [citraconic hydrazide] | 286 °C
20 | COc1c(OC)c(=O)c1=O [3,4-dimethoxy-3-cyclobutene-1,2-dione] | 55 °C
21 | C=CC(=O)O [acrylic acid] | 13 °C
22 | COC(N)=O [methyl carbamate] | 55 °C
23 | CS(=O)(=O)c1cccs1 [2-(methylsulfonyl)thiophene] | 48 °C
24 | N=C(N)NCCC[C@H](N)C(=O)O [L-Arginine] | 221 °C
25 | O=Cc1ccc(C(F)(F)F)cc1 [4-(trifluoromethyl)benzaldehyde] | 1.5 °C
26 | CCCCC#N [butyl_cyanide] | -96 °C
27 | O=Cc1ccc(-c2ccccc2)cc1 [biphenyl-4-carboxaldehyde] | 59 °C

Row | SMILES | melting point
28 | BrCC(Br)(Br)CBr [1,2,2,3-tetrabromopropane] | 11 °C
29 | Cc1ccc(N)c([N+](=O)[O-])c1 [4-Methyl-2-nitroaniline] | 117 °C
30 | OC(c1ccc(Cl)cc1)(c1ccc(Cl)cc1)c1ccc(Cl)cc1 [4,4',4''-trichlorotrityl alcohol] | 96 °C
31 | N#CCc1ccccc1C#N [o-cyano_phenylacetonitrile] | 80 °C
32 | CCC1CO1 (stereo not given) [1,2-butene oxide] | -130 °C and -129 °C
33 | CCCCCCCCC(=O)O [nonanoic_acid] | 12 °C
34 | CC(C)c1cccc(C(C)C)c1N [2,6-diisopropylaniline] | -54 °C
35 | COc1ccc(CC#N)c(Cl)c1 [2-chloro-4-methoxyphenylacetonitrile] | 42 °C
36 | CCCCCCCCCCOc1cc(N(NC(=O)OC(C)(C)C)C(=O)OC(C)(C)C)cc(OCCCCCCCCCC)c1OCCCCCCCCCC | 56 °C
37 | Cc1cc(B(O)O)cnc1Cl [6-chloro-5-methylpyridine-3-boronic acid] | 182 °C
38 | OC1CCCCC1 [cyclohexanol] | 24 °C
39 | C1=NN=C2CSCC12 (stereo not given) [4,6-dihydro-1H-thieno[3,4-c]pyrazole] | 133 °C
40 | CCCCN1CCCCC1C(=O)Nc1c(C)cccc1C (stereo not given) [Bupivacaine] | 108 °C
41 | O=Cc1ccc([N+](=O)[O-])cc1[N+](=O)[O-] [2,4-dinitrobenzaldehyde] | 66 °C
42 | Clc1nc(Cl)nc(Cl)n1 [2,4,6-Trichloro-1,3,5-triazine] | 146 °C
43 | CCCCCC(C)=O [Heptan-2-one] | -35 °C
44 | CC(C)(C)c1cc(C(C)(C)C)cc(C(C)(C)C)c1 [1,3,5-tri-tert-butylbenzene] | 71 °C
45 | C[C@@H](CN1CC(=O)NC(=O)C1)N1CC(=O)NC(=O)C1 [Dexrazoxane] | 194 °C
46 | CN1CCC(N(Cc2ccccc2)c2ccccc2)CC1 [bamipine] | 114 °C
47 | CC(=N/O)/C(C)=N\O [(2Z,3Z)-N,N'-Dihydroxybutane-2,3-diimine] | 238 °C
48 | Cn1cc([N+](=O)[O-])c(O)nc1=O [1-Methyl-5-nitropyrimidine-2,4(1H,3H)-dione] | 269 °C
49 | CCCCCCCC(C)=O [2-nonanone] | -8 °C
50 | CN(C)C1=NC(=O)C(c2ccccc2)O1 (stereo not given) [thozalinone] | 133 °C
51 | CC(C)(C)[Si](C)(C)Oc1cccc(B(O)O)c1 [3-(tert-butyldimethylsiloxy)benzeneboronic acid] | 89 °C
52 | CCCCCC(C)(C)O [2-methyl-2-heptanol] | -50 °C
53 | C[C@@H]1O[C@@H](O)[C@@H](O)[C@H](O)[C@@H]1O [L-fucose] | 139 °C

Continued, values first:

Row | melting point | SMILES
54 | 129 °C | O/N=C(\Cc1ccccc1)c1ccc2ccccc2c1 [(1E)-N-hydroxy-1-(naphthalen-2-yl)-2-phenylethanimine]
55 | 82 °C | CC(C)(C)NCC(O)COc1cc(Cl)ccc1Cl (stereo not given) [cloranolol]
56 | 226 °C | O=C(O)c1ccc(O)cc1O [2,4-Dihydroxybenzoic Acid]
57 | 182 °C | CC(=O)NS(=O)(=O)c1ccc(N)cc1 [sulfacetamide]
58 | 130 °C | O=C(/C=C/c1ccccc1)n1ccnc1 [1-(trans-cinnamoyl)imidazole]
59 | 123 °C | O=C(O)c1ccc(F)c(F)c1 [3,4-difluorobenzoic acid]
60 | 130 °C | Clc2cccc(Cl)c2N=C1/NCCN1 [clonidine]
61 | 48 °C | O=C(CCCl)c1ccc(F)cc1 [3-chloro-4'-fluoropropiophenone]
62 | 269 °C | c1ccc2c(c1)ccc1cc3c(ccc4ccccc43)cc12 [Dibenz[ah]anthracene]
63 | 29 °C | C=Cc1ccc([N+](=O)[O-])cc1 [p-nitrostyrene]
64 | 164 °C | Cc1cccc(Nc2ccncc2S(=O)(=O)NC(=O)NC(C)C)c1 [Torasemide]
65 | 115 °C | O=C(O)c1cccc(CO)c1 [m-hydroxymethyl_benzoic_acid]
66 | 15 °C | Cc1ccc(N)c(Br)c1 [2-bromo-4-methylaniline]
67 | 81 °C | CC(=O)c1cccc([N+](=O)[O-])c1 [1-(3-Nitrophenyl)ethanone]
68 | 80 °C | NNC(=O)c1ccco1 [2-furohydrazide]
69 | 141 °C | COC(=O)c1ccc(C(=O)OC)cc1 [Dimethyl terephthalate]
70 | 125 °C | C/C=C/C1Nn2c(nnc2-c2ccccc2OC)S1 (stereo not given)
71 | 99 °C | COc1ccccc1-c1ccc(/C=C/C(=O)c2ccccc2)o1
72 | 135 °C | CCOc1ccc(NC(C)=O)cc1 [Phenacetin]
73 | 210 °C | O=C(O)c1ccccc1C(=O)O [phthalic_acid]
74 | 221 °C | CC(=O)c1ccc(O)c(C(N)=O)c1 [5-acetylsalicylamide]
75 | 106 °C | N#C/C(=C\c1ccccc1)c1nc2ccccc2s1 [(2E)-2-(1,3-Benzothiazol-2-yl)-3-phenylacrylonitrile]
76 | 129 °C | Brc1ccnc(-c2ccc(Br)nc2)c1 [4,6'-dibromo-2,3'-bipyridine]
77 | 65 °C | CCOC(=O)N1c2ccccc2C=CC1OCC (stereo not given) [2-ethoxy-1-ethoxycarbonyl-1,2-dihydroquinoline]

Row | melting point | SMILES
78 | -48 °C | Cc1cccc(Cl)c1 [3-chlorotoluene]
79 | 2 °C | Cc1c(Cl)cccc1Cl [2,6-dichlorotoluene]
80 | 149 °C | COC1(CBr)OC(COC(=O)c2ccc(C)cc2)C(OC(=O)c2ccc(C)cc2)C1OC(=O)c1ccc(C)cc1 (stereo not given)
81 | 152 °C | O=C(O)CCc1c(F)c(F)nc(F)c1F [2,3,5,6-tetrafluoropyridine-4-propionic acid]
82 | -43 °C | CCc1ccc(Br)cc1 [1-bromo-4-ethylbenzene]
83 | 108 °C | O=C(c1ccc(F)cc1)c1ccc(F)cc1 [4,4'-difluorobenzophenone]
84 | 69 °C | O=C(Oc1ccccc1)c1ccccc1 [phenyl benzoate]
85 | 46 °C | FC(F)(F)c1ccc(Br)nc1 [2-bromo-5-(trifluoromethyl)pyridine]
86 | 146 °C | OB(O)c1cccnc1OCc1ccccc1 [2-benzyloxypyridine-3-boronic acid]
87 | 167 °C | NC(=O)c1cccc(Cl)c1Cl [2,3-dichlorobenzamide]
88 | -5 °C | CCc1ccc(N)cc1 [4-ethylaniline]
89 | 101 °C | CCN(CC)CCNc1ccc(CO)c2sc3ccccc3c(=O)c12 [hycanthone]
90 | 138 °C | O=[N+]([O-])c1ccc(NS(=O)(=O)c2ccccc2)cc1 [4-nitro-1-phenylsulfonamidobenzene]
91 | 7 °C | CCOC(=O)/C=C/c1ccccc1 [Ethyl (2E)-3-phenylacrylate]
92 | 22 °C | Oc1ccc(F)cc1Cl [2-chloro-4-fluorophenol]
93 | 160 °C | COc1cccc(B(O)O)c1 [3-methoxybenzeneboronic acid]
94 | 40 °C | O=[N+]([O-])c1ccc(C(F)(F)F)cc1 [4-nitrobenzotrifluoride]
95 | 55 °C | CC(C)(C)c1ccc(O)c(O)c1 [4-tert-butylcatechol]
96 | 239 °C | O=C1OC(c2ccc(O)c3ccccc23)(c2ccc(O)c3ccccc23)c2ccccc21 [alpha-naphtholphthalein]
97 | 203 °C | NC(=O)CN1Cc2ccccc2OC1=O [caroxazone]
98 | 120 °C | Cn1c(C=O)nc2ccccc21 [1-methylbenzimidazole-2-carboxaldehyde]
99 | 213 °C | O=C(O)c1c2ccccc2cc2ccccc12 [Anthracene-9-carboxylic acid]
100 | 83 °C | N#CCc1ccccc1[N+](=O)[O-] [2-nitrophenylacetonitrile]
